# Data taken from patent publication US20210220376A1, “ADDICTION TREATMENT OF AN ALCOHOL-CONSUMING PATIENT POPULATION” (Amygdala Neurosciences, Inc., priority 2018, published 2021).
# Experiments:
# hMAO-A = target: T1, hMAO-A (Homo sapiens, UniProt P21397); conditions: read-out: IC50 hMAO-A; cited from earlier work
# T1 sequence (P21397 1-527): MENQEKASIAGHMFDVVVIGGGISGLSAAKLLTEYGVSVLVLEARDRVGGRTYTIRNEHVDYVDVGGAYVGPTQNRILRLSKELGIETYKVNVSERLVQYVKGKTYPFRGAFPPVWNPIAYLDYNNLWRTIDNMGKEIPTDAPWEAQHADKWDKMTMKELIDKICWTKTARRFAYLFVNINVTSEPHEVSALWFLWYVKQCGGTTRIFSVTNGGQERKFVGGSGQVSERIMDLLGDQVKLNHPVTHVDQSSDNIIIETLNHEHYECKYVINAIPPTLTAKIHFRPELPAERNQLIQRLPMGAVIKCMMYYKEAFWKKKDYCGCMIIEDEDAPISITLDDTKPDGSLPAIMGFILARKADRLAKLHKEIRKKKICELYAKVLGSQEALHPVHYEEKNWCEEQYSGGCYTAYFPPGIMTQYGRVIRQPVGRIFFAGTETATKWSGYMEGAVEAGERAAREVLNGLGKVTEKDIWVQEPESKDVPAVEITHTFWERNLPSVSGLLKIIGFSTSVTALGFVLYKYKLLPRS
# hMAO-B = target: T2, hMAO-B (Homo sapiens, UniProt P27338); conditions: read-out: IC50 hMAO-B; cited from earlier work
# T2 sequence (P27338 1-520): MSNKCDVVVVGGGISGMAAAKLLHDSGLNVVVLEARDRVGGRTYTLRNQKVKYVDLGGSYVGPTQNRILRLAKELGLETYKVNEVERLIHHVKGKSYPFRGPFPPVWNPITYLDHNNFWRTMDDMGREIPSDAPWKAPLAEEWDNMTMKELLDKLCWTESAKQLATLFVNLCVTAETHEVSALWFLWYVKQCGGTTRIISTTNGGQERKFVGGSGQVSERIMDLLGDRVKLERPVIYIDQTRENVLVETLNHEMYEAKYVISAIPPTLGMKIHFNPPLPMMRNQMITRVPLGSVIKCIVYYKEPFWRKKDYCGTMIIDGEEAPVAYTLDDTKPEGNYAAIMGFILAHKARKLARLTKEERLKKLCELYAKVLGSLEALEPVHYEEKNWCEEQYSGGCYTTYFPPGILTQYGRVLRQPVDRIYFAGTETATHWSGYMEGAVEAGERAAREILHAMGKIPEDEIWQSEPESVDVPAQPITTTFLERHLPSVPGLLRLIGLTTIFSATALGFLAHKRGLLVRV
# [1] = tested on: healthy male alcohol drinkers; experiment: Phase 1 study of compound (2) with ethanol: pharmacodynamics (mDEQ-5); assay type: in vivo, human
# From the text: The exploratory pharmacodynamic endpoints included maximum effect (Emax), maximum change from baseline (CFBmax), time to Emax (TEmax), and time-averaged area under the effect curve (TA_AUE), as applicable, derived from Modified 5-item Drug Effects Questionnaire (mDEQ-5) scores.
# mDEQ-5 scores were summarized by timepoint and treatment using descriptive statistics. Derived endpoints (Emax, CFBmax, TEmax, TA_AUE, as applicable) were summarized by treatment using descriptive statistics. For each mDEQ-5-derived endpoint, an analysis of variance (ANOVA) was conducted to compare each of active doses to placebo with dose group as a factor. Results were presented in terms of LSMEANS, treatment differences in LSMEANS, 95% CI and p-values.
# Ethanol consumption and number of EtOH doses consumed (i.e., number of drinks) during the repeat EtOH administration sessions were summarized using descriptive statistics.
structure (smiles),measurement,setting,value
"O=C(NCc1ccc(-c2ccn(COP(=O)(O)O)c(=O)c2)cc1)c1c(Cl)cccc1Cl [Compound (2), phosphoric acid mono-(4-{4-[(2,6-dichloro-benzoylamino)-methyl]-phenyl}-2-oxo-2H-pyridin-1-ylmethyl) ester]",IC50,hMAO-A,> 130 µM
same,IC50,hMAO-B,> 130 µM
same,dose response on pharmacodynamic measures,[1]; 25-600 mg,did not show a consistent dose response
same,"peak VAS scores: feeling any alcohol effects, feeling drunk, liking the effects of alcohol",[1]; all dose levels vs placebo,Peak scores for placebo were higher than scores for all compound (2) dose levels
